Tested on: Sprague Dawley rats
Test: 28-day oral toxicity test: histopathological examination
Conditions: for Bone, femur: Hypertrophy, epiphysis; Score value / Bone marrow, femur: Hypocellularity; Score value / Bone marrow, sternum: Hypocellularity; Score value / Spleen: Atrophy, red pulp; Score value: grades 1-5
[1] = female rats, 7.5 mg/kg oral 28 d
[2] = female rats, 37.5 mg/kg oral 28 d
[3] = male rats, 37.5 mg/kg oral 28 d

For `C=C1CC[C@H]2C(C)(C)CCC[C@@]23C(=O)OC[C@@H]13` [Antrocin, (-)-Antrocin], the “Adrenal gland: Congestion, cortex, focal, slight; incidence” value [1] was “-”, the “Aorta: histopathological lesions” value [1] was “-” and the “Bone, femur: Hypertrophy, epiphysis, diffuse, slight to moderate/severe; incidence” value (“Bone, femur … to moderate/severe; incidence” below) [1] was 0/5. The “Cervix: histopathological lesions” value [1] was “-”, the “Esophagus: histopathological lesions” value [1] was “-” and the “Eyes: histopathological lesions” value [1] was “-”. For the same compound, the “Heart: histopathological lesions” value [1] was “-”, the “Kidney: Cast, tubule, focal, slight; incidence” value [1] was “-” and the “Liver: Fatty change, multifocal, slight; incidence” value [1] was 1/5. The “Lung: histopathological lesions” value [1] was “-”, the “Optic nerve: histopathological lesions” value [1] was “-” and the “Ovary: Increase, follicle, multifocal, moderate to moderate/severe; incidence” value [1] was 0/5. The “Oviduct: histopathological lesions” value [1] was “-”, the “Pancreas: histopathological lesions” value [1] was “-” and the “Parathyroid gland: histopathological lesions” value [1] was “-”. For the same compound, the “Pituitary: histopathological lesions” value [1] was “-”, the “Salivary gland: histopathological lesions” value [1] was “-” and the “Sciatic nerve: histopathological lesions” value [1] was “-”. For the same compound, the “Skeletal muscle: histopathological lesions” value [1] was “-”, the “Skin: histopathological lesions” value [1] was “-” and the “Spinal cord: histopathological lesions” value [1] was “-”. For the same compound, the “Spleen: histopathological lesions” value [1] was “-”, the “Stomach: histopathological lesions” value [1] was “-” and the “Thymus: histopathological lesions” value [1] was “-”. For the same compound, the “Thyroid gland: histopathological lesions” value [1] was “-”, the “Tongue: histopathological lesions” value [1] was “-” and the “Trachea: histopathological lesions” value [1] was “-”. The “Urinary bladder: histopathological lesions” value [1] was “-”, the “Uterus: histopathological lesions” value [1] was “-” and the “Vagina: histopathological lesions” value [1] was “-”. For the same compound, the “Bone, femur: Hypertrophy, epiphysis; Score value” (“Bone, femur … Score value” for short) [1] was 0, the “Adrenal gland: Congestion, cortex, focal, slight; incidence” value [2] was “-” and the “Aorta: histopathological lesions” value [2] was “-”. The “Bone, femur … to moderate/severe; incidence” value [2] was 0/5, the “Cervix: histopathological lesions” value [2] was “-” and the “Esophagus: histopathological lesions” value [2] was “-”. For the same compound, the “Eyes: histopathological lesions” value [2] was “-”, the “Harderian gland: Infiltration, mononuclear cell, focal, minimal; incidence” value [2] was 1/5 and the “Heart: histopathological lesions” value [2] was “-”. The “Kidney: Cast, tubule, focal, slight; incidence” value [2] was “-”, the “Lung: histopathological lesions” value [2] was “-” and the “Optic nerve: histopathological lesions” value [2] was “-”. For the same compound, the “Ovary: Increase, follicle, multifocal, moderate to moderate/severe; incidence” value [2] was 0/5, the “Oviduct: histopathological lesions” value [2] was “-” and the “Pancreas: histopathological lesions” value [2] was “-”. The “Parathyroid gland: histopathological lesions” value [2] was “-”, the “Pituitary: histopathological lesions” value [2] was “-” and the “Salivary gland: histopathological lesions” value [2] was “-”. For the same compound, the “Sciatic nerve: histopathological lesions” value [2] was “-”, the “Skeletal muscle: histopathological lesions” value [2] was “-” and the “Skin: histopathological lesions” value [2] was “-”. For the same compound, the “Spinal cord: histopathological lesions” value [2] was “-”, the “Spleen: histopathological lesions” value [2] was “-” and the “Stomach: histopathological lesions” value [2] was “-”. The “Thymus: histopathological lesions” value [2] was “-”, the “Thyroid gland: histopathological lesions” value [2] was “-” and the “Tongue: histopathological lesions” value [2] was “-”. For the same compound, the “Trachea: histopathological lesions” value [2] was “-”, the “Urinary bladder: histopathological lesions” value [2] was “-” and the “Uterus: histopathological lesions” value [2] was “-”. The “Vagina: histopathological lesions” value [2] was “-”, the “Bone, femur … Score value” [2] was 0 and the “treatment-related lesions in the histopathological examination” value (high dose (37.5 mg/kg) oral 28 d) was “no significant treatment-related lesions”. The “Adrenal gland: Congestion, cortex, multifocal, slight; incidence” value (male rats, 7.5 mg/kg oral 28 d) was “-”, the “Aorta: histopathological lesions” value (male rats, 7.5 mg/kg oral 28 d) was “-” and the “Bone marrow, femur: Hypocellularity, diffuse, slight to moderate/severe; incidence” value (male rats, 7.5 mg/kg oral 28 d) was 0/5. For the same compound, the “Bone marrow, sternum: Hypocellularity, diffuse, moderate; incidence” value (male rats, 7.5 mg/kg oral 28 d) was 0/5, the “Bone, femur … to moderate/severe; incidence” value (male rats, 7.5 mg/kg oral 28 d) was 0/5 and the “Coagulative gland: histopathological lesions” value (male rats, 7.5 mg/kg oral 28 d) was “-”. The “Epididymis: Granuloma, spermatic, focal, moderate; incidence” value (male rats, 7.5 mg/kg oral 28 d) was “-”, the “Esophagus: histopathological lesions” value (male rats, 7.5 mg/kg oral 28 d) was “-” and the “Eyes: histopathological lesions” value (male rats, 7.5 mg/kg oral 28 d) was “-”. For the same compound, the “Harderian gland: histopathological lesions” value (male rats, 7.5 mg/kg oral 28 d) was “-”, the “Heart: Infiltration, mononuclear cell, focal, minimal to slight; incidence” value (male rats, 7.5 mg/kg oral 28 d) was 1/5 and the “Intestine, large, Caecum: histopathological lesions” value (male rats, 7.5 mg/kg oral 28 d) was “-”. The “Intestine, large, Colon: histopathological lesions” value (male rats, 7.5 mg/kg oral 28 d) was “-”, the “Intestine, large, Rectum: histopathological lesions” value (male rats, 7.5 mg/kg oral 28 d) was “-” and the “Intestine, small, Duodenum: histopathological lesions” value (male rats, 7.5 mg/kg oral 28 d) was “-”. For the same compound, the “Intestine, small, Ileum: histopathological lesions” value (male rats, 7.5 mg/kg oral 28 d) was “-”, the “Intestine, small, Jejunum: histopathological lesions” value (male rats, 7.5 mg/kg oral 28 d) was “-” and the “Kidney: Cast, tubule, focal, minimal; incidence” value (male rats, 7.5 mg/kg oral 28 d) was “-”. For the same compound, the “Kidney: Cyst, tubule, focal, slight; incidence” value (male rats, 7.5 mg/kg oral 28 d) was 1/5, the “Kidney: Infarct, tubule, focal, slight; incidence” value (male rats, 7.5 mg/kg oral 28 d) was 2/5 and the “Liver: histopathological lesions” value (male rats, 7.5 mg/kg oral 28 d) was “-”. The “Lung: histopathological lesions” value (male rats, 7.5 mg/kg oral 28 d) was “-”, the “Lymph node, Cervical: histopathological lesions” value (male rats, 7.5 mg/kg oral 28 d) was “-” and the “Lymph node, Mesenteric: histopathological lesions” value (male rats, 7.5 mg/kg oral 28 d) was “-”. For the same compound, the “Mammary gland: histopathological lesions” value (male rats, 7.5 mg/kg oral 28 d) was “-”, the “Optic nerve: histopathological lesions” value (male rats, 7.5 mg/kg oral 28 d) was “-” and the “Pancreas: histopathological lesions” value (male rats, 7.5 mg/kg oral 28 d) was “-”. For the same compound, the “Parathyroid gland: histopathological lesions” value (male rats, 7.5 mg/kg oral 28 d) was “-”, the “Pituitary: histopathological lesions” value (male rats, 7.5 mg/kg oral 28 d) was “-” and the “Salivary gland, Mandibular lobe: histopathological lesions” value (male rats, 7.5 mg/kg oral 28 d) was “-”. The “Salivary gland, Sublingual lobe: histopathological lesions” value (male rats, 7.5 mg/kg oral 28 d) was “-”, the “Sciatic nerve: histopathological lesions” value (male rats, 7.5 mg/kg oral 28 d) was “-” and the “Seminal vesicle: histopathological lesions” value (male rats, 7.5 mg/kg oral 28 d) was “-”. For the same compound, the “Skeletal muscle: histopathological lesions” value (male rats, 7.5 mg/kg oral 28 d) was “-”, the “Skin: histopathological lesions” value (male rats, 7.5 mg/kg oral 28 d) was “-” and the “Spinal cord: histopathological lesions” value (male rats, 7.5 mg/kg oral 28 d) was “-”. The “Spleen: Atrophy, red pulp, diffuse, slight to moderate; incidence” value (male rats, 7.5 mg/kg oral 28 d) was 0/5, the “Stomach: histopathological lesions” value (male rats, 7.5 mg/kg oral 28 d) was “-” and the “Testis: histopathological lesions” value (male rats, 7.5 mg/kg oral 28 d) was “-”. For the same compound, the “Thymus: histopathological lesions” value (male rats, 7.5 mg/kg oral 28 d) was “-”, the “Thyroid gland: histopathological lesions” value (male rats, 7.5 mg/kg oral 28 d) was “-” and the “Tongue: histopathological lesions” value (male rats, 7.5 mg/kg oral 28 d) was “-”. For the same compound, the “Trachea: histopathological lesions” value (male rats, 7.5 mg/kg oral 28 d) was “-”, the “Urinary bladder: histopathological lesions” value (male rats, 7.5 mg/kg oral 28 d) was “-” and the “Bone marrow, femur: Hypocellularity; Score value” (male rats, 7.5 mg/kg oral 28 d) was 0. For the same compound, the “Bone marrow, sternum: Hypocellularity; Score value” (male rats, 7.5 mg/kg oral 28 d) was 0, the “Bone, femur … Score value” (male rats, 7.5 mg/kg oral 28 d) was 0 and the “Spleen: Atrophy, red pulp; Score value” (male rats, 7.5 mg/kg oral 28 d) was 0. The “Adrenal gland: Congestion, cortex, multifocal, slight; incidence” value [3] was “-”, the “Aorta: histopathological lesions” value [3] was “-” and the “Bone marrow, femur: Hypocellularity, diffuse, slight to moderate/severe; incidence” value [3] was 0/5. The “Bone marrow, sternum: Hypocellularity, diffuse, moderate; incidence” value [3] was 0/5, the “Bone, femur … to moderate/severe; incidence” value [3] was 0/5 and the “Coagulative gland: histopathological lesions” value [3] was “-”. For the same compound, the “Epididymis: Granuloma, spermatic, focal, moderate; incidence” value [3] was “-”, the “Esophagus: histopathological lesions” value [3] was “-” and the “Eyes: histopathological lesions” value [3] was “-”. The “Harderian gland: histopathological lesions” value [3] was “-”, the “Heart: Infiltration, mononuclear cell, focal, minimal to slight; incidence” value [3] was 1/5 and the “Intestine, large, Caecum: histopathological lesions” value [3] was “-”. For the same compound, the “Intestine, large, Colon: histopathological lesions” value [3] was “-”, the “Intestine, large, Rectum: histopathological lesions” value [3] was “-” and the “Intestine, small, Duodenum: histopathological lesions” value [3] was “-”. The “Intestine, small, Ileum: histopathological lesions” value [3] was “-”, the “Intestine, small, Jejunum: histopathological lesions” value [3] was “-” and the “Kidney: Cast, tubule, focal, minimal; incidence” value [3] was “-”. For the same compound, the “Kidney: Infarct, tubule, focal, slight; incidence” value [3] was 1/5, the “Liver: histopathological lesions” value [3] was “-” and the “Lung: histopathological lesions” value [3] was “-”. For the same compound, the “Lymph node, Cervical: histopathological lesions” value [3] was “-”, the “Lymph node, Mesenteric: histopathological lesions” value [3] was “-” and the “Mammary gland: histopathological lesions” value [3] was “-”. The “Optic nerve: histopathological lesions” value [3] was “-”, the “Pancreas: histopathological lesions” value [3] was “-” and the “Parathyroid gland: histopathological lesions” value [3] was “-”. The “Pituitary: histopathological lesions” value [3] was “-”, the “Prostate gland: Infiltration, mononuclear cell, focal, minimal to slight; incidence” value [3] was 2/5 and the “Salivary gland, Mandibular lobe: histopathological lesions” value [3] was “-”. The “Salivary gland, Sublingual lobe: histopathological lesions” value [3] was “-”, the “Sciatic nerve: histopathological lesions” value [3] was “-” and the “Seminal vesicle: histopathological lesions” value [3] was “-”. The “Skeletal muscle: histopathological lesions” value [3] was “-”, the “Skin: histopathological lesions” value [3] was “-” and the “Spinal cord: histopathological lesions” value [3] was “-”. For the same compound, the “Spleen: Atrophy, red pulp, diffuse, slight to moderate; incidence” value [3] was 0/5, the “Stomach: histopathological lesions” value [3] was “-” and the “Testis: histopathological lesions” value [3] was “-”. For the same compound, the “Thymus: histopathological lesions” value [3] was “-”, the “Thyroid gland: histopathological lesions” value [3] was “-” and the “Tongue: histopathological lesions” value [3] was “-”. For the same compound, the “Trachea: histopathological lesions” value [3] was “-”, the “Urinary bladder: histopathological lesions” value [3] was “-” and the “Bone marrow, femur: Hypocellularity; Score value” [3] was 0. The “Bone marrow, sternum: Hypocellularity; Score value” [3] was 0, the “Bone, femur … Score value” [3] was 0 and the “Spleen: Atrophy, red pulp; Score value” [3] was 0.
